Data set [1] in a line: xn = mol fraction of the nth substance listed.

Consider 18 compounds from the CheMixHub viscosity set.

The structures appear in SMILES notation. Where “and” joins values, the source holds several entries; their conditions need not be identical. Equal entries are not always repeated. ± gives the uncertainty stated by the source.

Turning to `CCCCOCCOCCOCCCC`, the viscosity reads like this: (298.15 K, 101.3 kPa) 2.16 ± 0.033 mPa·s; (308.15 K, 101.3 kPa) 1.762 ± 0.027 mPa·s; (318.15 K, 101.3 kPa) 1.408 ± 0.022 mPa·s.

For `CC(=O)[O-].C[N+]1(CC2CO2)CCCC1=O` (configuration not stated), the viscosity (293.15 K, 101 kPa) is listed as 6.55 ± 0.15 mPa·s; the viscosity (298.15 K, 101 kPa) is recorded as 5.55 ± 0.13 mPa·s; the viscosity (303.15 K, 101 kPa) amounted to 4.77 ± 0.11 mPa·s; the viscosity (308.15 K, 101 kPa) is 4.13 ± 0.09 mPa·s and 4.14 ± 0.09 mPa·s; the viscosity (313.15 K, 101 kPa) is reported as 3.62 ± 0.08 mPa·s.

Consider `CCCCCCCCCCCCOC(C)=O`, for which the viscosity (303.15 K, 101.3 kPa) is recorded as 3.089 ± 0.024 mPa·s.

Consider `CCCCCCCC[N+](C)(CCCCCCCC)CCCCCCCC.[Cl-]`, for which the viscosity runs as follows: (298.15 K, 101 kPa) 2391 ± 800 mPa·s; (303.15 K, 101 kPa) 1602 ± 480 mPa·s; (308.15 K, 101 kPa) 1067 ± 280 mPa·s; (313.15 K, 101 kPa) 766.1 ± 180 mPa·s; (318.15 K, 101 kPa) 568.9 ± 120 mPa·s.

As to `CCCCO`, the viscosity (293.15 K, 100 kPa) was 2.873 ± 0.17 mPa·s and 2.61 ± 0.15 mPa·s and 2.868 ± 0.032 mPa·s; the viscosity (293.15 K, 101 kPa) is 2.929 ± 0.066 mPa·s and 2.868 ± 0.015 mPa·s; the viscosity (293.15 K, 101.33 kPa) is recorded as 2.9 ± 0.04 mPa·s; the viscosity (298 K, 101.3 kPa) stood at 2.507 ± 0.031 mPa·s; the viscosity (298 K, 101.33 kPa) is 2.52 ± 0.02 mPa·s; the viscosity (298.15 K, 101.3 kPa) was found to be 2.442 ± 0.03 mPa·s. Moreover, the viscosity (303 K, 101.33 kPa) is given as 2.095 ± 0.22 mPa·s; the viscosity (303.15 K, 101 kPa) was 2.121 ± 0.017 mPa·s and 2.002 ± 0.027 mPa·s and 2.12 ± 0.026 mPa·s; the viscosity (303.15 K, 101.3 kPa) turned out to be 2.129 ± 0.027 mPa·s; the viscosity (308 K, 101.3 kPa) was determined as 1.903 ± 0.19 mPa·s; the viscosity (308.15 K, 101.3 kPa) stood at 1.856 ± 0.023 mPa·s; the viscosity (308.15 K, 101.33 kPa) was 1.929 ± 0.012 mPa·s and 1.949 ± 0.024 mPa·s. Also, the viscosity was 1.62 ± 0.16 mPa·s (313 K, 101.3 kPa); 1.7 ± 0.027 mPa·s and 1.687 ± 0.06 mPa·s (313.15 K, 101 kPa); 1.692 ± 0.04 mPa·s and 1.817 ± 0.022 mPa·s (313.15 K, 101.3 kPa); 1.456 ± 0.15 mPa·s (318 K, 101.3 kPa); 1.563 ± 0.018 mPa·s (318.15 K, 100 kPa); 1.487 mPa·s (318.15 K, 101.33 kPa). The viscosity by setting is: (323 K, 100 kPa) 1.215 ± 0.24 mPa·s; (323 K, 101.3 kPa) 1.334 ± 0.13 mPa·s; (323.15 K, 101 kPa) 1.361 ± 0.11 mPa·s and 1.329 ± 0.018 mPa·s; (323.15 K, 101.33 kPa) 1.393 ± 0.044 mPa·s and 1.393 ± 0.013 mPa·s and 1.09 ± 0.17 mPa·s.

`CCn1cc[n+](C)c1.O=C([O-])C(F)(F)C(F)(F)C(F)(F)C(F)(F)F`: the viscosity is, setting by setting: (298.15 K, 101 kPa) 107.5 ± 4.6 mPa·s; (308.15 K, 101 kPa) 65.87 ± 2.7 mPa·s; (318.15 K, 101 kPa) 43.09 ± 1.8 mPa·s.

Consider `C1CCC(C2CCCCC2)CC1`, for which the viscosity (293.15 K, 102 kPa) came to 4.06 ± 0.03 mPa·s; the viscosity (303.15 K, 102 kPa) was 3.18 ± 0.02 mPa·s; the viscosity (313.15 K, 102 kPa) worked out at 2.56 ± 0.02 mPa·s; the viscosity (323.15 K, 102 kPa) is given as 2.1 ± 0.02 mPa·s.

Under “298.15 K, 101 kPa”, `CCCCC(=O)O` returned a viscosity of 1.97 ± 0.051 mPa·s.

For `Fc1c(F)c(F)c(F)c(F)c1F`, the viscosity runs as follows: (293.15 K, 101 kPa) 0.951 ± 0.009 mPa·s; (293.15 K, 101.33 kPa) 0.9446 ± 0.0076 mPa·s; (298.15 K, 101.33 kPa) 0.8695 ± 0.007 mPa·s; (303.15 K, 101 kPa) 0.793 ± 0.008 mPa·s; (308.15 K, 101.33 kPa) 0.7631 ± 0.0061 mPa·s; (313.15 K, 101 kPa) 0.664 ± 0.007 mPa·s. The compound further displayed a viscosity (318.15 K, 101.33 kPa) of 0.6708 ± 0.0054 mPa·s and a viscosity (323.15 K, 101 kPa) of 0.591 ± 0.006 mPa·s.

Compound `NCCN1CCNCC1` returned a viscosity (298.15 K, 100 kPa) of 14.48 ± 1.4 mPa·s; a viscosity (308.15 K, 100 kPa) of 11.34 ± 1.1 mPa·s; a viscosity (318.15 K, 100 kPa) of 7.1 ± 0.71 mPa·s.

Consider `CSC`, for which, for the setting “293.15 K, 101 kPa”, the viscosity is 0.307 ± 0.008 mPa·s.

As to `CCOC(=O)C(Cl)(Cl)Cl`, the viscosity (323.15 K, 101 kPa) is 1.037 ± 0.013 mPa·s.

Take `Cc1cccnc1`: where the note is “298.15 K, 101 kPa”, the viscosity was determined as 0.8723 ± 0.014 mPa·s.

For the compound `CCCCCCCCCCCCCC(=O)OCC`, the viscosity runs as follows: (308.15 K, 100 kPa) 3.322 ± 0.078 mPa·s; (318.15 K, 100 kPa) 2.699 ± 0.063 mPa·s; (323.15 K, 100 kPa) 2.451 ± 0.058 mPa·s.

As to `CCCC[n+]1ccc(C)cc1.N#C[S-]`, the viscosity reads like this: (298.15 K, 101 kPa) 85.69 ± 12 mPa·s; (308.15 K, 101 kPa) 51.75 ± 0.55 mPa·s; (318.15 K, 101 kPa) 33.88 ± 2.1 mPa·s.

As to `NCCNCCN`, the viscosity worked out at 5.52 ± 0.23 mPa·s (298.15 K, 101.33 kPa); 3.865 ± 0.16 mPa·s (308.15 K, 101.33 kPa); 3.048 ± 0.12 mPa·s (318.15 K, 101.33 kPa); 2.698 ± 0.11 mPa·s (323.15 K, 101.33 kPa).

As for `C=C1CCC2CC1C2(C)C` (configuration not stated) + Cc1cccc(C)c1, the viscosity amounted to 1.225 ± 0.029 mPa·s in data set [1] (303.15 K, 101 kPa, x2 = 0.2415); 1.049 ± 0.025 mPa·s in data set [1] (303.15 K, 101 kPa, x2 = 0.3531); 0.915 ± 0.022 mPa·s in data set [1] (303.15 K, 101 kPa, x2 = 0.4592); 0.799 ± 0.02 mPa·s in data set [1] (303.15 K, 101 kPa, x2 = 0.5602); 0.737 ± 0.019 mPa·s in data set [1] (303.15 K, 101 kPa, x2 = 0.6564); 0.682 ± 0.017 mPa·s in data set [1] (303.15 K, 101 kPa, x2 = 0.7482). Further, the viscosity was found to be 0.637 ± 0.016 mPa·s in data set [1] (303.15 K, 101 kPa, x2 = 0.8359); 0.602 ± 0.016 mPa·s in data set [1] (303.15 K, 101 kPa, x2 = 0.9198); 1.137 ± 0.027 mPa·s in data set [1] (308.5 K, 101 kPa, x2 = 0.2415); 0.98 ± 0.024 mPa·s in data set [1] (308.5 K, 101 kPa, x2 = 0.3531); 0.85 ± 0.021 mPa·s in data set [1] (308.5 K, 101 kPa, x2 = 0.4592); 0.748 ± 0.019 mPa·s in data set [1] (308.5 K, 101 kPa, x2 = 0.5602). Besides, the viscosity in data set [1] (308.5 K, 101 kPa, x2 = 0.6564) is 0.685 ± 0.017 mPa·s; in data set [1] (308.5 K, 101 kPa, x2 = 0.7482), 0.639 ± 0.017 mPa·s; in data set [1] (308.5 K, 101 kPa, x2 = 0.8359), 0.6 ± 0.016 mPa·s; in data set [1] (308.5 K, 101 kPa, x2 = 0.9198), 0.568 ± 0.015 mPa·s; in data set [1] (313.15 K, 101 kPa, x2 = 0.2415), 1.05 ± 0.025 mPa·s; in data set [1] (313.15 K, 101 kPa, x2 = 0.3531), 0.91 ± 0.022 mPa·s. The viscosity in data set [1] (313.15 K, 101 kPa, x2 = 0.4592) stood at 0.787 ± 0.02 mPa·s; in data set [1] (313.15 K, 101 kPa, x2 = 0.5602), 0.697 ± 0.018 mPa·s; in data set [1] (313.15 K, 101 kPa, x2 = 0.6564), 0.637 ± 0.016 mPa·s; in data set [1] (313.15 K, 101 kPa, x2 = 0.7482), 0.593 ± 0.016 mPa·s; in data set [1] (313.15 K, 101 kPa, x2 = 0.8359) it was 0.563 ± 0.015 mPa·s; in data set [1] (313.15 K, 101 kPa, x2 = 0.9198), 0.542 ± 0.014 mPa·s.

As for `CN1CCCN2CCCN=C12` + O, the viscosity in data set [1] (294.96 K, 100 kPa, x1 = 0.5035) came out at 29.2 ± 3.5 mPa·s; in data set [1] (296.8 K, 100 kPa, x1 = 0.1982), 23.1 ± 3.8 mPa·s; in data set [1] (296.87 K, 100 kPa, x1 = 0.1982), 24.9 ± 3.9 mPa·s; in data set [1] (298.43 K, 100 kPa, x1 = 0.5035) it was 23.6 ± 2.8 mPa·s; in data set [1] (298.43 K, 100 kPa, x1 = 0.798) it was 11.2 ± 1.3 mPa·s; in data set [1] (303.69 K, 100 kPa, x1 = 0.1982), 15.8 ± 1.9 mPa·s. For the same compound, the viscosity in data set [1] (308.29 K, 100 kPa, x1 = 0.5035) amounted to 14 ± 1.7 mPa·s; in data set [1] (308.31 K, 100 kPa, x1 = 0.798), 7.6 ± 0.9 mPa·s; in data set [1] (313.13 K, 100 kPa, x1 = 0.1982), 11.5 ± 1.4 mPa·s; in data set [1] (318.19 K, 100 kPa, x1 = 0.798), 5.6 ± 0.7 mPa·s.

As usually defined, the viscosity is the resistance of a fluid to flow. High values mean a thick fluid, low ones a thin fluid.
